Results published in US9809598B2 (Merck Patent GmbH, priority 2014, dated 2017).
Where a name gives a salt, the structure may show the parent alone. Read-outs that look alike come from different tables or passages of the source.

Assays:
[1] = target: T1, TNKS1 (Homo sapiens, UniProt O95271); assay: TNKS1 activity ELISA (autoparsylation assay); assay type: biochemical; settings: GST-tagged Tnks-1 (1023-1327 aa)
T1 construct: GST-tagged Tnks-1 (1023-1327 aa, prepared in-house); made in house
Description: (§1) Description of the TNKS1 and TNKS2 ELISA Assay
(§2) Biochemical Activity Testing of TNKS 1 and 2: Activity ELISA (Autoparsylation Assay)
(§3) For analysis of autoparsylation activity of TNKS 1 and 2 an activity ELISA iss performed: In the first step GST tagged TNKS is captured on a Glutathione coated plate. Then the activity assay with biotinylated NAD is performed in the absence/presence of the compounds. During the enzymatic reaction GST tagged TNKS transfers biotinylated ADP-ribose to itself from biotinylated NAD as co-substrate. For the detection streptavidin-HRP conjugate is added that binds to the biotinylated TNKS and is thereby captured to the plates. The amount of biotinylated resp. autoparsylated TNKS is detected with a luminescence substrate for HRP. The level of the luminescence signal correlats directly with the amount of autoparsylated TNKS and therefore with activity of TNKS.
(§4) The activity ELISA is performed in 384 well Glutathione coated microtiter plates (Express capture Glutathione coated plate, Biocat, Heidelberg, Germany). The plates are pre-equilibrated with PBS. […] The plates are washed 3 times with PBS-Tween-20. The wells are blocked by incubation at room temperature for 20 minutes with 50 μl blocking buffer (PBS, 0.05% Tween-20, 0.5% BSA). Afterwards the plates are washed 3 times with PBS-Tween-20. […] The reaction is stopped by 3 times washing with PBS-Tween-20. For the detection 50 μl of 20 ng/μl Streptavidin, HRP conjugate (MoBiTec, Göttingen, Germany) in PBS/0.05% Tween-20/0.01% BSA are added and the plates are incubated for 30 minutes at room temperature. After three times washing with PBS-Tween-20 50 μl of SuperSignal ELISA Femto Maximum sensitivity substrate solution (ThermoFisherScientific (Pierce), Bonn, Germany) are added. Following a 1 minute incubation at room temperature luminescence signals are measured with an Envision multimode reader (Perkin Elmer LAS Germany GmbH) at 700 nm. The full value used is the inhibitor-free reaction. […] The inhibitory values (IC50) are determined using either the program Symyx Assay Explorer® or Condosseo® from GeneData.

[2] = test system: Tankyrases; settings: read-out: EC50 [M] TNKS cellular assay; DLD1 cells, 24 hours, Axin2 increase
[3] = target: T2, PARP-1 (Homo sapiens, UniProt P09874); assay: PARP-1 autoparsylation assay (HTRF); assay type: biochemical; settings: His-tagged Parp-1, autoparsylation HTRF
T2 construct: purchased Enzo Life Sciences GmbH, Lörrach, Germany
Text: Description of the PARP1 Assay
Biochemical Activity Testing of PARP-1: Autoparsylation Assay
The autoparsylation assay is run in two steps: the enzymatic reaction in which His-tagged Parp-1 transfers biotinylated ADP-ribose/ADP-ribose to itself from biotinylated NAD/NAD as co-substrate and the detection reaction where a time resolved FRET between cryptate labelled anti-His antibody bound to the His tag of the enzyme and Xlent® labelled-streptavidin bound the biotin-parsylation residue is analysed. The autoparsylation activity is detectable directly via the increase in HTRF signal.
The autoparsylation assay is performed as 384-well HTRF® (Cisbio, Codolet, France) assay format in Greiner low volume nb 384-well microtiter plates. […] The ratio of the emission signals is determined. The full value used is the inhibitor-free reaction. The pharmacological zero value used is Olaparib (LClabs, Woburn, US) in a final concentration of 1 μM. The inhibitory values (IC50) are determined using either the program Symyx Assay Explorer® or Condosseo® from GeneData.

[4] = target: T3, TNKS2 (Homo sapiens, UniProt Q9H2K2); assay: TNKS2 activity ELISA (autoparsylation assay); assay type: biochemical
T3 construct: GST-tagged Tnks-2 (873-1166 aa, prepared in-house); made in house
Description: as §1, §2, §3, §4

[5] = GST-tagged Tnks-2 (873-1166 aa), read-out: IC50 [M] TNKS2 ELISA

T3 sequence (Q9H2K2 873-1166): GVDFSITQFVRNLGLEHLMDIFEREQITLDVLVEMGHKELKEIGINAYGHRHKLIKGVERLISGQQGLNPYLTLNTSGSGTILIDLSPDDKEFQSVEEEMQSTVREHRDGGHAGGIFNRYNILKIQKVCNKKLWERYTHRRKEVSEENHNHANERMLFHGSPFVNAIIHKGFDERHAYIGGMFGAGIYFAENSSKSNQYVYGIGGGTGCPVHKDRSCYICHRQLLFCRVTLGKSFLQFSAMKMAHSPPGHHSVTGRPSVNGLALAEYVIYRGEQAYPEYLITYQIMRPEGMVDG
T1 sequence (O95271 1023-1327): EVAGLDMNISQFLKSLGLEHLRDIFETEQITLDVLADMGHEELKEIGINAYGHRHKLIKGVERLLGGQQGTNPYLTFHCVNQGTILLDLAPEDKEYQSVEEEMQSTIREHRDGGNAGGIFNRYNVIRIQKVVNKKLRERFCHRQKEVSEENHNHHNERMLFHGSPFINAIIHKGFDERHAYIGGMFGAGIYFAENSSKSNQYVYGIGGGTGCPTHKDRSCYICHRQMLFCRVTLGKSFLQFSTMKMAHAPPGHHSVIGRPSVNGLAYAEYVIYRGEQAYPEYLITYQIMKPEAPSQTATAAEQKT
T2 sequence (P09874 whole entry): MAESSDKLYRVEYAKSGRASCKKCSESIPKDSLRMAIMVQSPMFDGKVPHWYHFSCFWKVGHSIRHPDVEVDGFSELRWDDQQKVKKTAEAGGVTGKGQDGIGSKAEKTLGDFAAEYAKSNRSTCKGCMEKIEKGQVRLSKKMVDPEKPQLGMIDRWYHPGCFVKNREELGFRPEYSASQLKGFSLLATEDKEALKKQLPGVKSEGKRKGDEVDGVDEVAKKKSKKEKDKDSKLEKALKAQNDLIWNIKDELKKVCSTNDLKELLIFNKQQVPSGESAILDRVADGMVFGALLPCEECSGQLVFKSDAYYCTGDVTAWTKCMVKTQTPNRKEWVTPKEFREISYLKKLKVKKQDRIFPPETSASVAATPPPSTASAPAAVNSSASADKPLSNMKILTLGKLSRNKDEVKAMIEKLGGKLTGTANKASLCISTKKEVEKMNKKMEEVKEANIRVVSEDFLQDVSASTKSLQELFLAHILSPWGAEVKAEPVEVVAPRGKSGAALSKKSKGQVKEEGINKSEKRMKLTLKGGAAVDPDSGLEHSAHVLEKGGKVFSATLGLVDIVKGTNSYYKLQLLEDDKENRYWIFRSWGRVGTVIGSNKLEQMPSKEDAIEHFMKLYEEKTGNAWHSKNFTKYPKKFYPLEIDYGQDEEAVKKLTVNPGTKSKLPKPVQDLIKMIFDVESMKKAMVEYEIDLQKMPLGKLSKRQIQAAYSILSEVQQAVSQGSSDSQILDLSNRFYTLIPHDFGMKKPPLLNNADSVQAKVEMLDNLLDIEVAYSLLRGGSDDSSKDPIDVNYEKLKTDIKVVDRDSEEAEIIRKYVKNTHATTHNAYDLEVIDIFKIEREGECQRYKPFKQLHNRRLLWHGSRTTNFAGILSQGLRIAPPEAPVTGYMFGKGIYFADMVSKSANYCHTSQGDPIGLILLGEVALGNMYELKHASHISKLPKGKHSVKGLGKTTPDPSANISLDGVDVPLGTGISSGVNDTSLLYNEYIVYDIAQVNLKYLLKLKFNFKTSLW

Row | Structure (SMILES) | IC50 [1] [nM] | EC50 [2] [M] | IC50 [3] [nM] | IC50 [4, 5] [M] | IC50 [4] [M]
1 | Cn1ncc2c(=O)[nH]c(CCCC(=O)N3CCC(c4nnc(-c5ccccc5)o4)CC3)nc21 [Compound C46, 1-Methyl-6-{4-oxo-4[4-(5-phenyl-[1,3,4]oxadiazol-2-yl)-piperidin-1-yl]-butyl}-1,5-dihydro-pyrazolo[3,4-d]pyrimidin-4-one] | 2.9 | 6.6e-08 | 7200 | 2.4e-09 | 
2 | Cn1ncc2c(=O)[nH]c(CCCC(=O)N3CCC(Oc4ccc(C#N)cc4)CC3)nc21 [Compound C47, 4-{1-[4-(1-Methyl-4-oxo-4,5-dihydro-1H-pyrazolo[3,4-d]pyrimidin-6-yl)-butyryl]-piperidin-4-yloxy}-benzonitrile] | 110 | 4.5e-07 | 4400 | 4.1e-08 | 
3 | COc1ccc(C(=O)C2CCN(C(=O)CCCc3nc4c(cnn4C)c(=O)[nH]3)CC2)cc1C [Compound C49, 6-{4-[4-(4-Methoxy-3-methyl-benzoyl)-piperidin-1-yl]-4-oxo-butyl}-1-methyl-1,5-dihydro-pyrazolo[3,4-d]pyrimidin-4-one] | 0.16 | 3.1e-10 | 9900 | 1.4e-10 | 
4 | Cn1ncc2c(=O)[nH]c(CCCC(=O)N3CCC(C(=O)c4ccc(C(C)(C)O)cc4)CC3)nc21 [Compound C50, 6-{4-{4-[4-(1-Hydroxy-1-methyl-ethyl)benzoyl]-1-piperidyl}-4-oxo-butyl}-1-methyl-5H-pyrazolo[3,4-d]pyrimidin-4-one] | 11 | 3.8e-07 | 23000 | 4e-09 | 
5 | Cc1csc2c(=O)[nH]c(CCCC(=O)N3CCC(c4nnc(-c5ccccc5)o4)CC3)nc12 [Compound C54, 7-Methyl-2-{4-oxo-4-[4-(5-phenyl-[1,3,4]oxadiazol-2-yl)-piperidin-1-yl]-butyl}-3H-thieno[3,2-d]pyrimidin-4-one] | 4.7 | 1.4e-08 | 1500 | 1.8e-09 | 
6 | COc1ccc(C(=O)C2CCN(C(=O)CCCc3nc4c(C)csc4c(=O)[nH]3)CC2)cc1F [Compound C55, 2-{4-[4-(3-Fluoro-4-methoxy-benzoyl)-piperidin-1-yl]-4-oxo-butyl}-7-methyl-3H-thieno[3,2-d]pyrimidin-4-one] | 0.18 | 1.9e-09 | 400 | 1.2e-10 | 
7 | Cc1csc2c(=O)[nH]c(CCCC(=O)N3CCC(c4cnc(N)c(C#N)c4)CC3)nc12 [Compound C56, 6-Amino-1′-[4-(7-methyl-4-oxo-3,4-dihydro-thieno[3,2-d]pyrimidin-2-yl)-butyryl]-1′,2′,3′,4′,5′,6′-hexahydro-[3,4′]bipyridinyl-5-carbonitrile] | 0.95 | 3.6e-08 | 360 | 5.3e-10 | 
8 | COc1ccc(C(=O)C2CCN(C(=O)CCCc3cn4c(C)ccc4c(=O)[nH]3)CC2)cn1 [Compound C57, 3-{4-[4-(6-Methoxy-pyridine-3-carbonyl)-piperidin-1-yl]-4-oxo-butyl}-6-methyl-2H-pyrrolo[1,2-a]pyrazin-1-one] | 0.19 | 7.7e-10 | 0.48 |  | 1.8e-10
9 | Cc1ccc2c(=O)[nH]c(CCCC(=O)N3CCC(C(=O)c4cnn(C)c4)CC3)cn12 [Compound C62, 6-Methyl-3-{4-[4-(1-methyl-1H-pyrazole-4-carbonyl)-piperidin-1-yl]-4-oxo-butyl}-2H-pyrrolo[1,2-a]pyrazin-1-one] | 0.16 | 3.5e-09 | 800 | 1.2e-10 | 
10 | Cn1cc(C(=O)C2CCN(C(=O)CCCc3cn4cc(F)cc4c(=O)[nH]3)CC2)cn1 [Compound C78, 7-Fluoro-3-{4-[4-(1-methyl-1H-pyrazole-4-carbonyl)-piperidin-1-yl]-4-oxo-butyl}-2H-pyrrolo[1,2-a]pyrazin-1-one] | 0.24 | 2.9e-09 | 1200 | 1.6e-10 | 
11 | COc1ccc(C(=O)C2CCN(C(=O)CCCc3cn4c(C)ncc4c(=O)[nH]3)CC2)cn1 [Compound C99, 6-{4-[4-(6-Methoxy-pyridine-3-carbonyl)-piperidin-1-yl]-4-oxo-butyl}-3-methyl-7H-imidazo[1,5-a]pyrazin-8-one] | 0.37 | 1.1e-08 | 6700 | 1.1e-08 | 
12 | Cc1ncc2c(=O)[nH]c(CCCC(=O)N3CCC(C(=O)c4cnn(C)c4)CC3)cn12 [Compound C105, 3-Methyl-6-{4-[4-(1-methyl-1H-pyrazole-4-carbonyl)-piperidin-1-yl]-4-oxo-butyl}-7H-imidazo[1,5-a]pyrazin-8-one] | 0.43 | 3.9e-07 | 29000 | 5.7e-10 | 
13 | COc1ccc(C(=O)C2CCN(C(=O)CCCc3nc4c(C)scc4c(=O)[nH]3)CC2)cc1F [Compound C113, 2-{4-[4-(3-Fluoro-4-methoxy-benzoyl)-piperidin-1-yl]-4-oxo-butyl}-7-methyl-3H-thieno[3,4-d]pyrimidin-4-one] | 0.38 | 2.6e-09 | 29000 | 2.4e-10 | 
14 | Cc1scc2c(=O)[nH]c(CCCC(=O)N3CCC(c4cnc(N)c(C#N)c4)CC3)nc12 [Compound C115, 6-Amino-1′-[4-(7-methyl-4-oxo-3,4-dihydro-thieno[3,4-d]pyrimidin-2-yl)-butyryl]-1′,2′,3′,4′,5′,6′-hexahydro-[3,4′]bipyridinyl-5-carbonitrile trifluoroacetate] | 0.98 | 4.9e-08 | 570 | 1.3e-09 | 
15 | Cc1scc2c(=O)[nH]c(CCCC(=O)N3CCC(c4cnc(N)c(-c5ncccn5)c4)CC3)nc12 [Compound C116, 2-[4-(6-Amino-5-pyrimidin-2-yl-3′,4′,5′,6′-tetrahydro-2′H-[3,4′]bipyridinyl-1′-yl)-4-oxo-butyl]-7-methyl-3H-thieno[3,4-d]pyrimidin-4-one] | 0.37 | 3.6e-09 | 970 | 2.1e-10 | 
16 | Cc1scc2c(=O)[nH]c(CCCC(=O)N3CCC(c4nnc(-c5ccccc5)o4)CC3)nc12 [Compound C117, 7-Methyl-2-{4-oxo-4-[4-(5-phenyl-[1,3,4]oxadiazol-2-yl)-piperidin-1-yl]-butyl}-3H-thieno[3,4-d]pyrimidin-4-one] | 8.2 | 1.3e-07 | 820 | 5.7e-09 | 
17 | Cc1scc2c(=O)[nH]c(CCCC(=O)N3CCC(Oc4ccc(C#N)cc4)CC3)nc12 [Compound C118, 4-{1-[4-(7-Methyl-4-oxo-3,4-dihydro-thieno[3,4-d]pyrimidin-2-yl)-butyryl]-piperidin-4-yloxy}-benzonitrile] | 110 | 9.1e-07 | 850 | 8.9e-08 | 
18 | Cc1scc2c(=O)[nH]c(CCCC(=O)N3CCC(C(=O)c4ccc(F)cc4)CC3)nc12 [Compound C119, 2-{4-[4-(4-Fluoro-benzoyl)-piperidin-1-yl]-4-oxo-butyl}-7-methyl-3H-thieno[3,4-d]pyrimidin-4-one] | 0.9 | 3.3e-08 | 850 | 6.2e-10 | 
19 | Cc1scc2c(=O)[nH]c(CCCC(=O)N3CCC(C(=O)c4ccc(C(C)(C)O)cc4)CC3)nc12 [Compound C121, 2-(4-{4-[4-(1-Hydroxy-1-methyl-ethyl)-benzoyl]-piperidin-1-yl}-4-oxo-butyl)-7-methyl-3H-thieno[3,4-d]pyrimidin-4-one] | 4.7 | 6.8e-08 | 3100 | 2.4e-09 | 
